Test results taken from patent publication US20260284018A1, “DUAL INHIBITORS OF DYRK1A AND 5-HT2 FOR TREATING A BRAIN DISORDER” (THE REGENTS OF THE UNIVERSITY OF CALIFORNIA, priority 2023, published 2026).

Assays:
DYRK1A = molecular target: T1, DYRK1A (Homo sapiens, UniProt Q13627); assay: DYRK1A inhibition (ADP-Glo assay); format: biochemical; settings: FIG. 3
T1 construct: purchased Promega
Experimental: DYRK1A inhibition. IC50s for all compounds at DYRK1A were determined using an ADP-Glo™ assay kit (Promega) and DYRK1A enzyme system (Promega) following the manufacturer's protocol. In brief, 10 μL of DYRKtide substrate (1 mg/mL) and ATP (50 μM) in kinase reaction buffer (40 mM Tris HCl, 20 mM MgCl2, 0.1 mg/mL BSA, 50 μM DTT in DI water) was added to a solid white 96-well plate. Next, 5 μL of 5× compound solutions in kinase reaction buffer (5% DMSO) or 5% DMSO in kinase reaction buffer was added. Then 10 μL DYRK1A in kinase reaction buffer (2 ng/μL) was added and the plate was incubated at room temperature for 60 min before adding 25 μL ADP-Glo™ reagent. The plate was incubated for 40 min at room temperature. Subsequently, 50 μL of Kinase Detection Reagent was added, the plate was gently shaken for 1 min. and incubated away from light for 30-40 min. Finally, luminescence was measured using a BioTek Synergy HTX multi-mode reader (integration time=1 s). All data was normalized such that the luminescence produced by the lowest concentration treatment of each compound was set to 100% DYRK1A activity.

C57BL/6J mice = assay: Locomotion in open field chamber; format: in vivo; settings: doses up to 30 mg/kg
Experimental: Animals. Female C57BL/6J mice used in the head twitch response and locomotion assays, and Sprague Dawley dams used to generate embryonic cultures were obtained from Jackson Laboratory (Sacramento, CA). Mice were housed in a temperature- and humidity-controlled room maintained on a 12 h light/dark cycle in groups of four to five (same sex). Animals weighed between 17 and 30 g at the time of the experiments. All experimental procedures involving rodents were approved by the UC Davis Institutional Animal Care and Use Committee (IACUC) and adhered to principles described in the National Institutes of Health Guide for the Care and Use of Laboratory Animals. The University of California, Davis is accredited by the Association for Assessment and Accreditation of Laboratory Animal Care International (AAALAC).
Head-Twitch Response and Locomotion. Mice (9-10 weeks old) were injected intraperitoneally with compounds dissolved in 10% Kolliphor® EL (Sigma) and 10% DMSO in 0.9% saline (injection volume 5 mL/kg) or vehicle, placed in an empty cage, and filmed for 10 min. Locomotion was quantified using ANYmaze Video Tracking System, version 7.07 (Stoelting Co.). […] The last 20 min of each video were scored by one trained observer blinded to the treatment conditions.

5-HT2C = 5-HT2C (Homo sapiens, UniProt P28335); assay: Radioligand ([3H]-LSD) competition binding assays, 5-HT2C versus 5-HT2A; settings: FIG. 4
5-HT2C, sequence (P28335 33-458): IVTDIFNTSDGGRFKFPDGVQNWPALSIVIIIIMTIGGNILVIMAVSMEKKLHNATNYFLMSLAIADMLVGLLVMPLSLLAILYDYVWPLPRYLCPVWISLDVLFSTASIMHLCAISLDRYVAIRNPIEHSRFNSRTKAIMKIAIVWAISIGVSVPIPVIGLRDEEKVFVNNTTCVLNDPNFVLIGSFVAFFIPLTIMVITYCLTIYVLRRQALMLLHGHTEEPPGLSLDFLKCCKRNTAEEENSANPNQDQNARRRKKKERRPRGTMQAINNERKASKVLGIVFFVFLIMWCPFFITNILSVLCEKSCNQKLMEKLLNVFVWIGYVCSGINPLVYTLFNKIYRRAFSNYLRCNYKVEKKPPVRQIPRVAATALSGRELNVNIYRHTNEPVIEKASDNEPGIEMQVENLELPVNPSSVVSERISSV
Experimental: Radioligands Binding Assays. Binding buffer consisted of 50 mM Tris HCl, 10 mM MgCl2, 0.1 mM EDTA disodium dihydrate in autoclaved deionized water. The solution was adjusted to pH 7.4 with […] NaOH(aq) and stored at 4° C. This solution was used for membrane preparation generation as well as in saturation and competition binding assays.
For the generation of membrane preparations, 15-cm plates of PSYLI2 cells (HEK293T cell line stably expressing psychLight2; mycoplasma free) or HEK293T cells (ATCCCRL-11268; mycoplasma free) lipofected with pCMV-GRAB_5-HT were grown in Dulbecco's Modified Eagle Media (DMEM) (Fisher, 11995073) containing 10% fetal bovine serum (Fisher, 26-140-079) and 1% penicillin/streptomycin (Fisher, 15140-163). When the cells were >90% confluent, the media was removed, and the cells were washed with Dulbecco's Phosphate Buffered Saline (DPBS, 15 mL) (ThermoFisher, #14190-250). Next, DMEM (15 mL) lacking fetal bovine serum and penicillin/streptomycin was added, and the cells were serum-starved for 4-12 h. All but ~5 mL of the media was removed from the plates before placing them on ice. […] The suspension was transferred to 2.0 mL Eppendorf tubes in 1.0 mL aliquots, saving a single aliquot of 0.25-0.50 mL suspension to use for quantification of protein concentration via a Bradford assay. […]

## COc1ccc2c3ccnc(C)c3n(CCN(C)C)c2c1.O=C(O)/C=C/C(=O)O [HTW_A_8 fumarate, 2-(7-methoxy-1-methyl-9H-pyrido[3,4-b]indol-9-yl)-N,N-dimethylethan-1-amine Fumarate Salt (2:3)]
DYRK1A
  inhibition of DYRK1A activity: able to inhibit DYRK1A activity
C57BL/6J mice
  total distance traveled in open field chamber: do not significantly affect the total distance traveled
5-HT2C
  affinity for 5-HT2C relative to 5-HT2A: higher affinity ligands for 5-HT2C than 5-HT2A

## COc1ccc2c(c1)N(CCN(C)C)/C(=C/C(C)=O)S2.O=C(O)/C=C/C(=O)O [HTW_B_14 fumarate, (Z)-1-(3-(2-(dimethylamino)ethyl)-5-methoxybenzo[d]thiazol-2(3H)-ylidene)propan-2-one Fumarate Salt (1:1)]
DYRK1A
  inhibition of DYRK1A activity: able to inhibit DYRK1A activity
C57BL/6J mice
  total distance traveled in open field chamber: do not significantly affect the total distance traveled
5-HT2C
  affinity for 5-HT2C relative to 5-HT2A: higher affinity ligands for 5-HT2C than 5-HT2A
